Measured values from patent US6653280B2, “Antifungal polypeptide AlyAFP from Alyssum and methods for controlling plant pathogenic fungi” (Monsanto Technology LLC, priority 1996, dated 2003).
Like-named read-outs stand apart in the source and are kept apart here.

Legend:
[1] = tested on: Verticillium dahliae; assay: Verticillium wilt disease test on transgenic potato plants expressing the polypeptide; format: in vivo, potato (Solanum tuberosum var. Russet Burbank); conditions: for Verticillium wilt resistance conferred to potato plants: expression levels as high as 25 μg/g fresh leaf tissue; for Disease Severity (%) (58 Days Post Inoc.): average of three replicates; for difference in disease progress between expressing lines and control lines: rated at 49, 58, and 64 days post inoculation; for Disease Severity (%) (44 Days Post Inoc.): average of 3 replicates
Experimental: Conidia and mycelia of a 2-3 week old culture of virulent Verticillium dahliae were used to inoculate a PDA (potatoes, 200 g/l; Bacto dextrose, 20 g/l; and Bacto agar, 15 g/l ) Petri plate. This culture was allowed to grow at 22° C. for 4-5 days. Conidia were then harvested by washing the culture plate with sterile distilled water and filtering the liquid through two layers of cheesecloth. The conidial spore concentration was determined using a hemacytometer, and adjusted to 1×10^6 conidia/ml with sterile distilled water.
Transgenic and non-transgenic potato plants were grown from stem cuttings under sterile conditions as described above in plastic cups containing 50 mls of PM-agar medium. When plants were about 1-2 inches tall, they were removed from the medium and their roots were dipped in the spore suspension (Joaquim et al. (1991) Phytopathology 81:552-558). The inoculated plants were then transplanted into 6-inch pots containing Metro-Mix 350. After transplanting, each plant received an additional 5mls of the spore suspension on the soil surface around the base of the stem. The pots were placed in a growth chamber under the following conditions: temperature at 20° C., light intensity at 320 μEinstein/sec/cm^2, 12 hr day/12 hr night light cycle, subirrigation with water 2 times/day, 20 minutes soaking each time. Four weeks after inoculation, the plants were scored for disease severity on a scale of 0-100% (Horsfall et al. (1945) Phytopathology 35:655). To develop a disease progress curve over time, plants were rated once a week for at least 8 weeks.
Table 3 summarizes the protein expression level in each of the lines, and the disease severity rating of each individual line in the test determined at 44 days post inoculation. The disease severity rating was the average of 3 replicates. For convenience, the same disease data are also presented as a bar graph in FIG. 11. The order of appearance of each potato line in Table 3 (from top to bottom) and in FIG. 11 (from left to right) is the same.
In this test, disease symptoms appeared in the experimental and control plants at approximately 49 days post inoculation. Disease progress was rated at 49, 58, and 64 days post inoculation. […] The disease severity rating was the average of three replicates. Table 4 summarizes the protein expression level in each of the lines, and the disease severity rating of each individual line determined at 58 days post inoculation. For convenience, the same disease data are also presented as a bar graph in FIG. 12. The order of appearance of each potato line in Table 4 (from top to bottom) and in FIG. 12 (from left to right) is the same.

[2] = tested on: Fusarium culmorum; conditions: F. culmorum, comparison peptides disclosed in WO 93/05153, cited from earlier work
[3] = tested on: Verticillium dahliae; conditions: V. dahliae, comparison peptides disclosed in WO 93/05153, cited from earlier work
[4] = tested on: Verticillium dahliae; assay: Antifungal activity: inhibition of fungal hyphal growth (microscopy); format: cell-based; conditions: V. dahliae
Experimental: (§1) The antifungal activity of AlyAFP can be expressed as the concentration thereof in μg/ml required to cause 50% inhibition of fungal hyphal growth (IC50). Percent fungal hyphal growth inhibition is defined as 100×the ratio of the average hyphae length in the test sample culture divided by the average hyphae length in the control culture in which buffer is added in place of the polypeptide sample.
(§2) The antifungal activity of AlyAFP was determined by measuring the inhibition of fungal hyphal length of a number of different fungi in the presence of this polypeptide under an inverted microscope. Fungal spores (2×10^4 spores/ml) were allowed to germinate for 5 to 15 hours, depending on the fungus used in the test, in 50 μl of double strength testing medium. […] For experiments on the antagonistic effect of cations, CaCl2 and KCl were added to final concentrations of 1 mM and 50 mM, respectively. This salt-supplemented medium is refered to as “high salt medium,” and the original medium is refered to as “low salt medium.” After spore germination, 50 μl of a filter-sterilized solution of polypeptide in distilled water were added to the testing well containing the germinated spores, and the mixture was incubated for 15 to 24 hours at 24° C. […] Polypeptide concentrations were determined using the BCA protein assay kit obtained from Pierce (Rockford, Ill.).

[5] = ELISA of antifungal polypeptide expression in leaves of transgenic potato plants; parameters: species or system potato (Solanum tuberosum var. Russet Burbank); conditions: 3 transgenic potato lines
Experimental: Leaf samples (20 to 100 mg) were taken from transgenic plants grown to 1 to 2 inches in height. The leaf samples were ground in PBST buffer (15 μl/mg tissue) containing 1 mM KH2PO4, 10 mM Na2HPO4, 137 mM NaCl, 2.7 mM KCl, pH 7.4, and 0.05% Tween-20, and allowed to sit at 4° C. overnight. After centrifugation, 100 μl of the supernatant were used in an ELISA assay. Polyclonal antibodies against Rs-AFP1 polypeptide (SEQ ID NO:18) were prepared by Pocono Rabbit Farm (Pocono, Pa.). Wells of a Nunc Maxi-sorp 96 well plate (Nunc #4-39454) were coated with antibodies against Rs-AFP1 polypeptide by adding 100 μl of antibodies (1 mg IgG/ml) diluted 1:200 in coating buffer containing 1.59 g Na2CO3 and 2.93 g NaHCO3 per liter distilled water, pH 9.6, and incubating at 4° C. overnight. The coating solution was then removed from the wells, which were then washed three times with PBST. One hundred μl of leaf supernatant or appropriately diluted polypeptide standards in PBST supplemented with 0.2% (w/v) BSA, fraction V (Sigma, St. Louis) were added to the wells. The concentration of each polypeptide in extracts from transgenic plants was determined from standard curves constructed using varying amounts of the respective purified polypeptide. […] The optical density at 405 nm was determined using a Thermo-max microplate reader (Molecular Devices, Menlo Park, Calif.). […]

[6] = tested on: Fusarium culmorum; conditions: F. culmorum
Experimental: as §1, §2

[7] = 58 days post inoc., average of the 5 expressing lines marked +, vector control 60.0
[8] = high salt medium (1 mM CaCl2, 50 mM KCl)

Substance: Rs-AFP1: small cysteine-rich antifungal protein isolated from radish seed (WO 93/05153), SEQ ID NO:18 (QKLCERPSGTWSGVCGNNNACKNQCINLEKARHGSCNYVFPAHKCICYFPC)
- Average Dis. Sev. [1, 7]: 59.8%
- Verticillium wilt resistance conferred to potato plants [1]: did not provide any significant level of Verticillium wilt resistance
- Disease Severity (%) (58 Days Post Inoc.) ([1]; potato line 15117, 9.7 μg AFP/g tissue): 47.5%
- Disease Severity (%) (58 Days Post Inoc.) ([1]; potato line 15120, 8.0 μg AFP/g tissue): 50.0%
- Disease Severity (%) (58 Days Post Inoc.) ([1]; potato line 15124, 26 μg AFP/g tissue): 56.3%
- Disease Severity (%) (58 Days Post Inoc.) ([1]; potato line 15143, 18.3 μg AFP/g tissue): 78.8%
- Disease Severity (%) (58 Days Post Inoc.) ([1]; potato line 15154, 5.2 μg AFP/g tissue): 66.3%
- difference in disease progress between expressing lines and control lines [1]: No differences
- IC50 ([2]; high salt): 70 µg/mL
- IC50 ([2]; low salt): 5 µg/mL
- IC50 ([3]; high salt): >100 µg/mL
- IC50 ([3]; low salt): 5 µg/mL

Substance: AlyAFP: antifungal polypeptide of 50 amino acids obtainable from flowers of Alyssum, SEQ ID NO:2 (RLCERPSGTWSGVCGNNNACRNQCRNLERAEHGSCNYVFPAHKCICYFPC)
- IC50 [4, 8]: <5 µg/mL
- IC50 ([4]; low salt medium): <1 µg/mL
- Average Dis. Sev. ([1]; 44 days post inoc., average of the 8 high and medium expressing lines marked +, vector control 39.2): 14.9%
- disease severity less than that of the vector control ([1]; average of 8 high and medium expressing lines vs average of 3 vector control lines, 44 days): 62%
- disease severity less than that of the vector control ([1]; best high expressing lines #17575 and #17587, 44 days): 82%
- disease resistance as compared to the vector controls ([1]; low expressing lines (0.9 to 1.1 μg/g fresh leaf tissue)): did not exhibit any significant level of disease resistance
- Disease Severity (%) (44 Days Post Inoc.) ([1]; potato line 17575, 14.9 μg AFP/g tissue): 7.5%
- Disease Severity (%) (44 Days Post Inoc.) ([1]; potato line 17578, 12.7 μg AFP/g tissue): 15%
- Disease Severity (%) (44 Days Post Inoc.) ([1]; potato line 17580, 0.9 μg AFP/g tissue): 33.3%
- Disease Severity (%) (44 Days Post Inoc.) ([1]; potato line 17581, 9.2 μg AFP/g tissue): 24.3%
- Disease Severity (%) (44 Days Post Inoc.) ([1]; potato line 17587, 9.6 μg AFP/g tissue): 6.3%
- Disease Severity (%) (44 Days Post Inoc.) ([1]; potato line 17589, 1.1 μg AFP/g tissue): 43.8%
- Disease Severity (%) (44 Days Post Inoc.) ([1]; potato line 17592, 2.6 μg AFP/g tissue): 11.8%
- Disease Severity (%) (44 Days Post Inoc.) ([1]; potato line 17593, 2.6 μg AFP/g tissue): 17.3%
- Disease Severity (%) (44 Days Post Inoc.) ([1]; potato line 17595, 5.2 μg AFP/g tissue): 21%
- Disease Severity (%) (44 Days Post Inoc.) ([1]; potato line 17618, 2.6 μg AFP/g tissue): 16.3%
- expression level at which potato plants exhibit resistance to Verticillium wilt ([1]; transgenic potato plants): ≥ 2.6 μg/g fresh leaf tissue
- expression level, medium expressers [5]: 2.6 μg AlyAFP/g fresh leaf tissue
- IC50 [6, 8]: <10 µg/mL
- IC50 ([6]; low salt medium): <2 µg/mL

Substance: Rs-AFP2: small cysteine-rich antifungal protein isolated from radish seed (WO 93/05153), SEQ ID NO:19 (QKLCQRPSGTWSGVCGNNNACKNQCIRLEKARHGSCNYVFPAHKCICYFPC)
- Average Dis. Sev. [1, 7]: 64.0%
- Verticillium wilt resistance conferred to potato plants [1]: did not provide any significant level of Verticillium wilt resistance
- Disease Severity (%) (58 Days Post Inoc.) ([1]; potato line 13500, 10.8 μg AFP/g tissue): 82.5%
- Disease Severity (%) (58 Days Post Inoc.) ([1]; potato line 13501, 25.2 μg AFP/g tissue): 76.3%
- Disease Severity (%) (58 Days Post Inoc.) ([1]; potato line 13503, 25.1 μg AFP/g tissue): 53.8%
- Disease Severity (%) (58 Days Post Inoc.) ([1]; potato line 13531, 16.2 μg AFP/g tissue): 72.5%
- Disease Severity (%) (58 Days Post Inoc.) ([1]; potato line 13532, 17.5 μg AFP/g tissue): 35.0%
- difference in disease progress between expressing lines and control lines [1]: No differences
- IC50 ([2]; high salt): 5 µg/mL
- IC50 ([2]; low salt): 2 µg/mL
- IC50 ([3]; high salt): 50 µg/mL
- IC50 ([3]; low salt): 1.5 µg/mL
